# Data from patent publication US6974885B2, “Method for isolating pharmaceutically exploitable etidronate disodium” (Schering AG, priority 2000, dated 2005).
# Counter-ions that a name gives are not always drawn.
# Tests used:
# [1] = Particle size analysis (RETSCH screen analysis); format: physicochemical; details: for particle size distribution, fraction 0.1-0.2 mm / particle size distribution, fraction 0.1 mm / particle size distribution, fraction 0.2-0.5 mm / particle size distribution, fraction 0.5-0.8 mm / particle size distribution, fraction 0.8-1.0 mm / particle size distribution, fraction 1.0 mm: end product; for particle size distribution, fraction 0.1-0.2 mm: screen fraction 0.1-0.2 mm; for particle size distribution, fraction 0.1 mm: screen fraction 0.1 mm; for particle size distribution, fraction 0.2-0.5 mm: screen fraction 0.2-0.5 mm; for particle size distribution, fraction 0.5-0.8 mm: screen fraction 0.5-0.8 mm; for particle size distribution, fraction 0.8-1.0 mm: screen fraction 0.8-1.0 mm; for particle size distribution, fraction 1.0 mm: screen fraction 1.0 mm
# Text: A RETSCH screen analysis system was used.
# [2] = Bulk density determination (graduated cylinder, unshaken); format: physicochemical; details: end product
# Experimental: Bulk Density Determination Bulk density was determined by means of a graduated cylinder (unshaken).
# [3] = cited from earlier work
SMILES,"particle size distribution, fraction 0.1-0.2 mm [1] [%]","particle size distribution, fraction 0.1 mm [1] [%]","particle size distribution, fraction 0.2-0.5 mm [1] [%]","particle size distribution, fraction 0.5-0.8 mm [1] [%]","particle size distribution, fraction 0.8-1.0 mm [1] [%]","particle size distribution, fraction 1.0 mm [1] [%]",bulk density [2] [g/mL],particles <0.1 mm ([1]; maximum share of all particles) [wt. %],particles >1 mm ([1]; maximum share of all particles) [wt. %],solubility in organic solvents ([3]; all organic solvents),water solubility ([3]; water)
"CC(O)(P(=O)(O)O)P(=O)(O)O [Example 1, etidronate disodium]",23.8,0.07,27.3,46.2,2.16,0.47,0.48,,,,
"CC(O)(P(=O)(O)O)P(=O)(O)O [etidronate disodium, disodium salt of hydroxyethane-1,1-diphosphonicacid]",,,,,,,0.4 to 0.6,≤ 5,≤ 10,nearly insoluble,high water solubility
"CC(O)(P(=O)(O)O)P(=O)(O)O [Example 2, etidronate disodium]",0.07,0.0,19.7,54.9,15.6,9.71,0.51,,,,
